Reference: patent US20210188856A1, “CRYSTAL FORM OF HYDROCHLORIDE OF PYRAZOLOHETEROARYL DERIVATIVE AND PREPARATION METHOD” (JIANGSU HENGRUI MEDICINE CO., LTD., priority 2018, published 2021)

Biological target: T1, human TLR7 (Homo sapiens, UniProt Q9NYK1)
T1 construct: host or cells: HEK-Blue hTLR7 (HEK293-derived) stably transfected cells
T1 sequence (Q9NYK1 27-1049): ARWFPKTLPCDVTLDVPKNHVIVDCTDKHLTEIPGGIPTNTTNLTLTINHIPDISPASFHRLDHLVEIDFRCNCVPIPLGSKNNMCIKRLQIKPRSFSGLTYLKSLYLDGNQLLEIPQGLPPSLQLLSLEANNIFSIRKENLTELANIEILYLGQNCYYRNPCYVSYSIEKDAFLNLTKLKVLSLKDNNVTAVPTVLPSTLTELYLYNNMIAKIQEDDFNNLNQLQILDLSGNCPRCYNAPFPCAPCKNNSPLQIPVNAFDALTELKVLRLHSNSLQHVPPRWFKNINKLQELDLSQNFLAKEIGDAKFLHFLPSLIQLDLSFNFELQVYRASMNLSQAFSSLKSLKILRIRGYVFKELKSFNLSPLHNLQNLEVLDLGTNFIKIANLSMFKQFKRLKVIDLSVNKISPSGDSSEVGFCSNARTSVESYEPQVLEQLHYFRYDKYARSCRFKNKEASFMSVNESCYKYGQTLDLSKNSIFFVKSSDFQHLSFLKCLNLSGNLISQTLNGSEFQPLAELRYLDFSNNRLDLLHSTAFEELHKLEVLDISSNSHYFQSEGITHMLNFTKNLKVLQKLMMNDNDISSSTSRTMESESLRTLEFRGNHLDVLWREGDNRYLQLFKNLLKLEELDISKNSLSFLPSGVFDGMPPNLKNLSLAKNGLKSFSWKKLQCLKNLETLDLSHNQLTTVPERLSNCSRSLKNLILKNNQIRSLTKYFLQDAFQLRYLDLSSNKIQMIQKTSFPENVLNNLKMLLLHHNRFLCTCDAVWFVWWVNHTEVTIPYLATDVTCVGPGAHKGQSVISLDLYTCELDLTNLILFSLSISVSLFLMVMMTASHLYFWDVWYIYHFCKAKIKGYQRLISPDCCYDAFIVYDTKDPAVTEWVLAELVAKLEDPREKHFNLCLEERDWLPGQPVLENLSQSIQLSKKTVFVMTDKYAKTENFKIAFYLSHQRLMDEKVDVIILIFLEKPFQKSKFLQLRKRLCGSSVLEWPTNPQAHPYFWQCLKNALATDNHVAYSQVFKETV
Experiment: Agonistic effect on human TLR7 (HEK-Blue hTLR7 cells)
Assay type: cell-based
Method: The agonistic effect of the compound represented by formula (I) on the hTLR7 protein expressed in HEK-Blue™ hTLR7 stably transfected cells was determined by the following experimental method:
A bag of HEK-Blue detection dry powder was dissolved in 50 mL of water free of endotoxin, and the solution was then placed in an incubator at 37° C. for 10 minutes followed by sterile filtration to prepare a HEK-Blue detection medium. The compound was firstly formulated into a 20 mM stock solution, then diluted with pure DMSO to a maximum concentration of 6×10^6 nM, and a total of 10 points were obtained by a 3-fold gradient dilution.
The above formulated compound was firstly diluted 20-fold with the medium, then 20 μL of the diluted compound was added to each well. The supernatant was removed from the HEK-Blue™ hTLR7 cells, to which 2-5 mL of pre-warmed PBS was then added. The cells were placed in an incubator for 1-2 minutes, gently pipetted, and counted by trypan blue staining. The cells were re-suspended in the HEK-Blue detection medium, and the concentration was adjusted to 2.2×10^5 cells/mL. […]
The plate was read with a microplate reader at a wavelength of 620 nm. The corresponding OD values were obtained, and the EC50 value of the compound was calculated by Graphpad Prism.

For CCCCOc1nc(N)c2cnn(Cc3ccc(CN4CCCC4)cc3)c2n1 [compound represented by formula (I), 6-Butoxy-1-(4-(pyrrolidin-1-ylmethyl)benzyl)-1H-pyrazolo[3,4-d]pyrimidin-4-amine], the “agonistic effect on human TLR7 (in words)” value (HEK-Blue hTLR7 cells) was “significant agonistic effect” and the EC50 (HEK-Blue hTLR7 stably transfected cells) was 28 nM.
